In paper PMC5733122, “Purification, Characterization, and Mode of Action of Pentocin JL-1, a Novel Bacteriocin Isolated from Lactobacillus pentosus, against Drug-Resistant Staphylococcus aureus” (BioMed Research International, 2017):

Experiment: pH stability, residual antibacterial activity
Assay type: physicochemical
Settings: 1 h; for Residual inhibitory activity (inhibition zone diameter, mm): 15 μg/mL in 0.05% acetic acid, agar-well diffusion vs MRSA GIM 1.771, mean ± SD, triplicate; for Residual inhibitory activity (inhibition zone diameter, mm) / Residual inhibitory activity (%): readjusted to pH 5.5; for Residual inhibitory activity (%): 15 μg/mL, vs MRSA GIM 1.771, relative to control pH 5.5
Procedure: To determine pH stability, lyophilized purified pentocin JL-1 was dissolved in 0.05% (w/v) acetic acid at 15 μg/mL and was adjusted with 1.0 M HCl or 1.0 M NaOH to different pH values of 2.0, 3.0, 4.0, 5.0, 6.0, 7.0, 8.0, 9.0, and 10.0. Then the above samples were incubated at 37°C for 1 h and were adjusted to pH 5.5 with 1.0 M HCl or 1.0 M NaOH.
The residual antibacterial activities of the above samples were calculated using the agar-well diffusion test with MRSA GIM 1.771 as the indicator strain. […] Lyophilized pentocin JL-1 dissolved in 0.05% (w/v) acetic acid at 15 μg/mL with pH 5.5 was used as a control in all assays.

VAKVAR [pentocin JL-1, novel bacteriocin produced by Lactobacillus pentosus JL-1, purified by four-step chromatography, molecular mass 2987.23 Da, cationic and hydrophobic peptide]
pH range tolerated / stable (37°C, no significant differences in antimicrobial activity (p > 0.05)): 5–7 | Residual inhibitory activity (inhibition zone diameter, mm) (pH 2.0, 37°C): 15.7 ± 1.4 mm | Residual inhibitory activity (%) (pH 2.0, 37°C): 65.69^∗ % | Residual inhibitory activity (inhibition zone diameter, mm) (pH 3.0, 37°C): 16.2 ± 1.8 mm | Residual inhibitory activity (%) (pH 3.0, 37°C): 67.78^∗ % | Residual inhibitory activity (inhibition zone diameter, mm) (pH 4.0, 37°C): 16.8 ± 1.2 mm | Residual inhibitory activity (%) (pH 4.0, 37°C): 70.29^∗ % | Residual inhibitory activity (inhibition zone diameter, mm) (pH 5.0, 37°C): 23.9 ± 0.4 mm | Residual inhibitory activity (%) (pH 5.0, 37°C): 100.00% | Residual inhibitory activity (inhibition zone diameter, mm) (pH 6.0, 37°C): 23.9 ± 0.8 mm | Residual inhibitory activity (%) (pH 6.0, 37°C): 100.00% | Residual inhibitory activity (inhibition zone diameter, mm) (pH 7.0, 37°C): 23.6 ± 0.6 mm | Residual inhibitory activity (%) (pH 7.0, 37°C): 98.74% | Residual inhibitory activity (inhibition zone diameter, mm) (pH 8.0, 37°C): 14.6 ± 0.3 mm | Residual inhibitory activity (%) (pH 8.0, 37°C): 61.09^∗ % | Residual inhibitory activity (inhibition zone diameter, mm) (pH 9.0, 37°C): 12.9 ± 0.9 mm | Residual inhibitory activity (%) (pH 9.0, 37°C): 53.97^∗ % | Residual inhibitory activity (inhibition zone diameter, mm) (pH 10.0, 37°C): 12.5 ± 1.6 mm | Residual inhibitory activity (%) (pH 10.0, 37°C): 52.30^∗ %
